Laboratory results: patent US20080125516A1, “Dispersible long-acting mold-proof polyurethanes or urethane adducts and mold-proof materials made thereof” (HEADWAY ADVANCED MATERIALS INC., priority 2006, published 2008)

Experiment: Solubility in solvents
Type: physicochemical

Measured: Solubility

COC(=O)Nc1nc2ccccc2[nH]1 [Unmodified Mold-Proof Agent, methy benzimidazol-2-ylcarbamate]
<0.3%: Dimethylformamide (DMF) | Ethyl acetate (EAC) | Methanol (ME) | Methyl-Ethyl Ketone (MEK) | N,N-dimethylacetamide (DMAC)
